Measurements: patent US20210369720A1, “SYNERGISTIC COMPOSITION HAVING NEUROPROTECTIVE PROPERTIES AND METHODS OF USE THEREOF” (Rutgers, The State University of New Jersey, priority 2018, published 2021)

Key:
[1] = system: TH positive dopaminergic neurons of the substantia nigra; assay: Nigral TH positive neuron count, α-Syn PFF inoculated WT mice; type: in vivo; conditions: each compound individually, PFF alone reduced neurons by 51% vs PBS
Description: Thy1-α-synuclein transgenic mice (Syn^Tg) on BDF1 background overexpressing human wild-type α-synuclein under the control of the Thy1 promoter were maintained by mating heterozygous transgenic females with WT BDF1 males (Rockenstein E, et al. (2002) Differential neuropathological alterations in transgenic mice expressing alpha-synuclein from the platelet-derived growth factor and Thy-1 promoters. J Neurosci Res 68(5):568-578). BDF1 mice (mixed C57BL/6-DBA/2) were generated every three months by mating female C57BL/6 (The Jackson Laboratory) and male DBA/2 mice (Charles River). Experiments were performed with male transgenic mice and their WT littermates. […] Wild-type littermates received regular water and control chow. […] At two months of age, mice were inoculated with α-Syn PFF unilaterally in the striatum. These treatments continued throughout the experiment until animals were sacrificed. Mice were weighed and their food and water intake was quantified weekly. Animals were housed 2-5/cage in an AAALAC approved facility in a temperature- and humidity-controlled environment under a 12-hour light/dark cycle and were maintained on a diet of lab chow and water ad libitum. […]

p-α-Syn = assay: Western blot of p-α-Syn in SH-SY5Y cells challenged with α-Syn PFF; type: cell-based, Human; conditions: SH-SY5Y cells challenged with mouse α-Syn PFF for 7 days; caffeine and/or EHT added to the medium
Experimental: Human neuroblastoma SH-SY5Y cells were cultured in DMEM-F12 with 10% FBS. At 50% confluency, cells were treated with 1 gg/ml mouse α-Syn PFF in DMEM-F12 with 1% FBS for 7 days. Medium was refreshed every 3 days. Cell harvesting was done with 2% SDS in PBS supplemented with protease inhibitor (Millipore) and phosphatase inhibitor (Sigma-Aldrich). Lysates were sonicated and boiled at 95° C. for 5 minutes. Protein concentration was determined by bicinchonic acid (BCA) method (Pierce), equal amount of protein was separated on 5-20% SDS-PAGE gel (Genescript) and transferred to nitrocellulose or PVDF membrane (Biorad). Following transfer, membranes were blocked for 1 hour at room temperature in blocking buffer (Li-Cor) or 5% (w/v) BSA/TBS-Tween 0.1% (v/v). Primary antibodies were diluted in blocking buffer or 5% (w/v) BSA/TBS-Tween 0.1% (v/v) and incubated with the membranes at 4° C. overnight. Membranes were washed three times in TBS-Tween and incubated in diluted IRDye 800CW or HRP conjugated secondary antibody for 1 hour at room temperature. Following washing, membranes were scanned by Li-Cor Odyssey CLx infrared imaging system or treated with the Western Lightning ECL-plus reagents (PerkinElmer) and exposed to autoradiography films (LabScientific).

Compound: CCCCCCCCCCCCCCCCCCCC(=O)NCCc1c[nH]c2ccc(O)cc12 [EHT, eicosanoyl-5-hydroxytryptamide]
- prevention of the reduction of TH positive dopaminergic neurons of the substantia nigra [1]: did not prevent this reduction
- p-α-Syn levels (p-α-Syn): reduced it partially
